The values below come from patent US8536181B2, “Prolyl hydroxylase inhibitors” (Aerpio Therapeutics Inc., priority 2009, dated 2013).

Counter-ions that a name gives are not always drawn.

In the first data set the test system is S. aureus.
Assay: not given
Conditions: Zinkernagel et al. 2008; cited from earlier work.
For `NC(Cn1ccc(=O)c(O)c1)C(=O)O` (centres unmarked) [mimosine], the lesion size entry is recorded as “reduce the lesion size”.

System in another data set: not listed separately
The experiment in a line: solubility of pharmaceutically acceptable salts in water. Type of data set: physicochemical.
Conditions: not given
How it is done:
The formulator can determine the solubility of the pharmaceutically acceptable salts of the disclosed inhibitors by any method desirable. The following is a non-limiting example of a procedure for evaluating the solubility of a salt of a disclosed inhibitor. A suspension of tert-butyl-{1[-(4-chlorobenzyl)-3-hydroxy-2-oxo-1,2-dihydropyridin-4-yl]methyl}-piperazine-1-carboxylate methanesulfonate (26.6 mg) in distilled deionized water (3.0 mL) is sonicated for 20 min with water bath temperature under 25° C. The suspension is filtered to remove any insoluble salt. The clear filtrate solution (200 μL) is diluted with distilled deionized water (800 μL) and subjected to HPLC analysis. The following are results for the pharmaceutically acceptable salts outlined in Table VII above.
By Solubility is commonly meant the dissolved amount per volume that the medium holds. For `CC(C)(C)OC(=O)N1CCN(Cc2ccn(Cc3ccc(Cl)cc3)c(=O)c2O)CC1` [hydrochloride, tert-butyl-{[1-(4-chlorobenzyl)-3-hydroxy-2-oxo-1,2-dihydropyridin-4-yl]methyl}-piperazine-1-carboxylate], the “Solubility” value stood at 5900 µg/mL.

Regarding `CC(C)(C)OC(=O)N1CCN(Cc2ccn(Cc3ccc(Cl)cc3)c(=O)c2O)CC1` [p-toluenesulfonate, tert-butyl-{[1-(4-chlorobenzyl)-3-hydroxy-2-oxo-1,2-dihydropyridin-4-yl]methyl}-piperazine-1-carboxylate], the “Solubility” value was 2300 µg/mL. Turning to “tert-butyl-{[1-(4-chlorobenzyl)-3-hydroxy-2-oxo-1,2-dihydropyridin-4-yl]methyl}-piperazine-1-carboxylate [hydrogensulfonate]”, the “Solubility” value was determined as 13200 µg/mL.

Staying with this data set, now noted: thermodynamic from solid; distilled deionized water, sonicated 20 min, under 25° C., HPLC.
Usually solubility stands for the concentration that dissolves in the medium under given conditions. In the case of `CC(C)(C)OC(=O)N1CCN(Cc2ccn(Cc3ccc(Cl)cc3)c(=O)c2O)CC1` [Compound A41, tert-butyl 4-{[1-(4-chlorobenzyl)-3-hydroxy-2-oxo-1,2-dihydropyridin-4-yl]methyl}-piperazine-1-carboxylate], the solubility at 20 min is about 1 µg/mL.

Turning to `CC(C)(C)OC(=O)N1CCN(Cc2ccn(Cc3ccc(Cl)cc3)c(=O)c2O)CC1.CS(=O)(=O)O` [methanesulfonate, tert-butyl-{1[-(4-chlorobenzyl)-3-hydroxy-2-oxo-1,2-dihydropyridin-4-yl]methyl}-piperazine-1-carboxylate methanesulfonate], the solubility at 20 min worked out at 16600 µg/mL.

In the next data set the test system is phosphoglycerate kinase (PGK) expression. The experiment in a line: PGK expression in wild type murine embryonic fibroblasts. It counts as cell-based. Conditions: 1 μM, 10 μM vs. wild type control (FIG. 12).
In the case of `O=c1c(O)cccn1Cc1cccc(Cl)c1` [Compound F2, 1-(3-chlorobenzyl)-3-hydroxypyridin-2(1H)-one], the PGK expression entry was “up regulation”.

A further data set deals with HIFPH2 (EGLN1) (Homo sapiens (Human), UniProt Q9GZT9). The experiment in a line: EGLN-1 Activity Assay (MALDI-TOF MS). It counts as biochemical. Conditions: recombinant human EGLN-1-179/426, HIF-1α peptide 556-574. How it is done: The enzyme, quantity predetermined to hydroxylate 20% of substrate in 20 minutes, is added to start the reaction. Where inhibitors are used, compounds are prepared in dimethyl sulfoxide at 10-fold final assay concentration. After 20 minutes at room temperature, the reaction is stopped by transferring 10 μL of reaction mixture to 50 μL of a mass spectrometry matrix solution (α-cyano-4-hydroxycinnamic acid, 5 mg/mL in 50% acetonitrile/0.1% TFA, 5 mM NH4PO4). Two microliters of the mixture is spotted onto a MALDI-TOF MS target plate for analysis with an Applied Biosystems (Foster City, Calif.) 4700 Proteomics Analyzer MALDI-TOF MS equipped with a Nd:YAG laser (355 nm, 3 ns pulse width, 200 Hz repetition rate). Hydroxylated peptide product is identified from substrate by the gain of 16 Da. Data defined as percent conversion of substrate to product is analyzed in GraphPad Prism 4 to calculate IC50 values.
HIFPH2 (EGLN1), sequence (Q9GZT9 179-426): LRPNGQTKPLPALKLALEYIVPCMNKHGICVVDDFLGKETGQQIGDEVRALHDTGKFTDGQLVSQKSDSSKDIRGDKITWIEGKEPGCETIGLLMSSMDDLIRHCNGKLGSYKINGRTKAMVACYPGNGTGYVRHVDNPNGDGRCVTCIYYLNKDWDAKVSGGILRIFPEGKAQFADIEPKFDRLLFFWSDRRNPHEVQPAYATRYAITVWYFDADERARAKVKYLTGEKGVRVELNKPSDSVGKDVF
Broadly, the IC50 is the point on the concentration scale where inhibition reaches its midpoint. On to “1-Benzyl-3-hydroxy-4-(4-benzylpiperidin-1-ylmethyl)pyridin-2(1H)-one [Compound B9]”, for which the IC50 came out at 17 µM. Consider “1-Benzyl-3-hydroxy-4-(benzylaminomethyl)pyridin-2(1H)-one [Compound C1]”, for which the IC50 worked out at 12 µM.

Turning to `COc1ccccc1Cn1ccc(CN2CCCCCC2)c(O)c1=O` [Compound A18], the IC50 was 18 µM.

On to `CC(C)(C)OC(=O)N1CCN(Cc2ccn(Cc3ccc(Cl)cc3)c(=O)c2O)CC1` [Compound A41, tert-butyl 4-{[1-(4-chlorobenzyl)-3-hydroxy-2-oxo-1,2-dihydropyridin-4-yl]methyl}-piperazine-1-carboxylate], for which the 50% inhibitory concentration (IC50) is 14 µM. Turning to `COC[C@H]1CCCN1Cc1ccn(Cc2ccccc2)c(=O)c1O` [Compound B5, 1-Benzyl-3-hydroxy-4-{[2-(methoxymethyl)pyrrolidin-1-yl]methyl}pyridin-2(1H)-one], the IC50 was determined as 9 µM. As to `O=c1c(O)c(CN2CCN(c3ccc(Cl)nn3)CC2)ccn1Cc1ccccc1` [Compound B14, 1-Benzyl-3-hydroxy-4-[4-(6-chloropyridazin-3-yl)piperazin-1-ylmethyl]pyridin-2(1H)-one], the IC50 is 11 µM. With `CC(NCc1ccn(Cc2ccccc2)c(=O)c1O)c1ccccc1` (centres unmarked) [Compound C14, 1-Benzyl-3-hydroxy-4-[(1-phenylethylamino)methyl]pyridin-2(1H)-one], the IC50 is 12 µM. Regarding `CC1CCC(NCc2ccn(Cc3ccccc3)c(=O)c2O)CC1` (centres unmarked) [Compound C17, 1-Benzyl-3-hydroxy-4-[(4-methylcyclohexylamino)methyl]pyridin-2(1H)-one], the IC50 came to 11 µM.

Take `O=C1NCCCCC1NCc1ccn(Cc2ccccc2)c(=O)c1O` (centres unmarked) [Compound C19, 3-[(1-Benzyl-3-hydroxy-2-oxo-1,2-dihydropyridin-4-yl)methylamino]azepan-2-one]: the IC50 was 12 µM. `CSCCNCc1ccn(Cc2ccccc2)c(=O)c1O` [Compound C33]: the IC50 stood at 16 µM. Same read-out and setting: under `O=c1c(O)c(CNCCCn2ccnc2)ccn1Cc1ccccc1` [Compound C35] stands 12 µM; under `Cc1ccc(S(=O)(=O)n2ccc(CN3CCC(N4CCCCC4)CC3)c(O)c2=O)cc1` [Compound D10, 1-(4′-Methylbenzenesulfonyl)-3-hydroxy-4-[1,4]Bipiperidinyl-1′-ylmethylpyridin-2(1H)-one], 4.4 µM. In the case of `Cc1ccc(S(=O)(=O)n2ccc(CN3CCN(c4ccc(Cl)nn4)CC3)c(O)c2=O)cc1` [Compound D14, 1-(4′-Methylbenzenesulfonyl)-3-hydroxy-4-[4-(6-chloropyridazin-3-yl)piperazin-1-ylmethyl]pyridin-2(1H)-one], the IC50 came to 12 µM. Take `O=c1c(O)cccn1Cc1cccc(Cl)c1` [Compound F2, 1-(3-chlorobenzyl)-3-hydroxypyridin-2(1H)-one]: the IC50 was 5 µM. Regarding `O=c1c(O)cccn1Cc1ccc(Cl)cc1` [Compound F3, 1-(4-chlorobenzyl)-3-hydroxypyridin-2(1H)-one], the IC50 was found to be 1.2 µM.

Another data set relates to Staphylococcus aureus.
Assay: not given
Conditions: dose-dependent; Zinkernagel et al. 2008; cited from earlier work.
On to `NC(Cn1ccc(=O)c(O)c1)C(=O)O` (centres unmarked) [mimosine], for which the “capacity of human phagocytes and whole blood to kill Staphylococcus aureus” value is reported as “boost”.
